Values quoted from earlier work in US20070225544A1, “APPARATUSES AND TECHNIQUES FOR BIOACTIVE DRUG DELIVERY IN THE PROSTATE GLAND” (priority 2006, published 2007).

How the values were obtained:
[1] = test system: benign prostatic hypertrophy (BPH); conditions: in vivo

Molecule | decrease in urinary symptoms [1] [%] | effective for up to ... in managing BPH [1] | Duration (relative duration of action of injectable corticosteroid agent) | Potency (relative potency of injectable corticosteroid agent)
botulinum-toxin | 30 | up to 1 year |  | 
CC(=O)OCC(=O)[C@@]1(O)CC[C@H]2[C@@H]3CCC4=CC(=O)CC[C@]4(C)[C@H]3[C@@H](O)C[C@@]21C [Hydrocortisone acetate] |  |  | Short | Low
